Test results published in patent publication US5811558A, “Process for the resolution of etodolac using glucamine derivatives” (priority 1994, dated 1998).
Where a name gives a salt, the structure may show the parent alone.

Legend:
[1] = open randomised two way crossover pharmacokinetic study in healthy male volunteers, single oral dose; format: in vivo, human (healthy male volunteers); conditions: for half-life: t1/2
Protocol: (§1) An open randomised two way crossover study was conducted on a group of 13 healthy male volunteers to investigate the pharmacokinetics of the meglumine salt of (S)-etodolac and racemic etodolac (Lodine®); 11 volunteers received both treatments. Doses used were […] of the meglumine salt (equivalent to 100 mg of the free acid) and 200 mg of racemic etodolac. Blood samples were taken regularly.
The results of the pharmacokinetic study are shown in Table 1 and in FIGS. 1 and 2 below.
FIG. 1 is a graph of plasma concentration (μg/ml) of the (S)enantiomer for all volunteers receiving a single oral dose of 200 mg of racemic etodolac.
FIG. 2 is a graph of plasma concentration (μ/ml) of the (S) enantiomer for all volunteers receiving a single oral dose of 168 mg of the meglumine salt of (S)-etodolac (100 mg free acid equivalent).

[2] = parameters: species or system human (healthy male volunteers); conditions: human, in vivo
Protocol: as §1
Etodolac had no affect on vital signs, ECGs, physical examinations or on any clinical laboratory assessments, including serum biochemistry, haematology and urinalysis, when administered in either form.

[3] = free acid, Lee et al, J. Pharm. Sci. (1988); cited from earlier work

SMILES	t1/2 comparison in words ([1]; human, in vivo)	half-life ([1]; human, in vivo, po) [h]	tmax ([1]; human, in vivo, po, tmax) [h]	effect on vital signs, ECGs, physical examinations or clinical laboratory assessments (serum biochemistry, haematology, urinalysis) [2]	stability on heating under acidic conditions [3]	peak plasma concentrations in words ([1]; human, in vivo)	tmax ([1]; human, in vivo, po) [h]	appearance in plasma in words ([1]; meglumine salt dosed orally)	plasma concentrations of (R)-etodolac relative to (S)-etodolac ([1]; human, in vivo, po)
CCc1cccc2c3c([nH]c12)C(CC)(CC(=O)O)OCC3 (racemic) [racemic etodolac]	substantially eguivalent	7.14	1.67	no affect	leads to its decomposition	–	–	–	–
CCc1cccc2c3c([nH]c12)[C@](CC)(CC(=O)O)OCC3 [Meglumine salt of (S)-etodolac]	–	–	–	–	–	significantly higher	0.333	appears in the plasma very rapidly	–
CCc1cccc2c3c([nH]c12)[C@](CC)(CC(=O)O)OCC3 [(S)-etodolac]	markedly lower	~2	–	–	–	–	1.23	–	–
CCc1cccc2c3c([nH]c12)[C@@](CC)(CC(=O)O)OCC3 [(R)-etodolac]	substantially eguivalent	~7	1.73	–	–	–	–	–	about 10 times higher
